Publication PMC3743553 (Journal of child neurology, 2012)

Experiments:
[1] = system: class I histone deacetylase enzymes; settings: 106: histone deacetylase enzymes 1 and 3; cited from earlier work
[2] = system: histone deacetylase enzyme 2; settings: relative to histone deacetylase enzymes 1 and 3; cited from earlier work
class II HDACs = settings: panel of recombinant human enzymes expressed in baculovirus; cited from earlier work
[3] = system: global acetylation of histone H3; settings: Friedreich ataxia lymphoblast cell line; cited from earlier work
YG8R mouse = settings: cited from earlier work
frataxin protein = settings: Friedreich ataxia lymphoblast cell line; cited from earlier work
[4] = system: KIKI (FXN 230GAA/230GAA) mouse; settings: KIKI mice; cited from earlier work
FXN messenger RNA [5] = experiment: FXN messenger RNA by qRT-PCR in Friedreich ataxia lymphoid cells; type: cell-based, human; settings: 10 μM compound, qRT-PCR of FXN messenger RNA
[6] = system: histone deacetylase enzyme 8; settings: relative to histone deacetylase enzymes 1 and 3; cited from earlier work
HDAC3 = settings: recombinant enzymes; cited from earlier work
FXN messenger RNA [7] = experiment: FXN messenger RNA by qRT-PCR in peripheral blood mononuclear cells; type: cell-based, human; settings: 10 μM, 48 hours
FXN messenger RNA [8] = settings: cited from earlier work; for effects on FXN messenger RNA levels: Friedreich ataxia cells
[9] = system: histones H3 and H4 within intron 1 of FXN; settings: chromatin immunoprecipitation; cited from earlier work
[10] = pH = 2 and 50 °C; cited from earlier work

## Cc1ccc(NC(=O)CCCCCC(=O)Nc2ccccc2N)cc1 [compound 106]
[1]
  mechanism of inhibition: slow-on/slow-off
[2]
  activity against histone deacetylase enzyme 2: much lower activity
Class II HDACs
  activity against class II histone deacetylases: little or no activity
[3]
  acetylated histones after washing cells free of the compounds: persists for several hours
YG8R mouse
  global histone H3 and H4 acetylation of brain tissue: increased
  toxicity during 5 months of treatment: no overt toxicity
YG8R mouse; long-term treatment
  motor coordination: improvement
Frataxin protein
  induction of frataxin protein: potent inducer
[4]
  frataxin levels in the nervous system and heart: restored
  histone H3 and H4 acetylation in chromatin near the GAA•TTC repeat: increased
FXN messenger RNA [5]
  FXN transcription: Highly active
[6]
  activity against histone deacetylase enzyme 8: much lower activity
HDAC3
  preference for histone deacetylase enzyme 3 over histone deacetylase enzyme 1: ~10 fold
FXN messenger RNA [7]; peripheral blood mononuclear cells from affected individuals
  FXN messenger RNA, cells from patients with Friedreich ataxia: significant increases
FXN messenger RNA [7]; peripheral blood mononuclear cells from unaffected individuals
  FXN messenger RNA, wild-type alleles in cells from unaffected individuals: only a very small effect

## O=C(CCCCCCC(=O)Nc1ccccc1)NO [suberoylanilide hydroxamic acid]
[3]
  acetylated histones after washing cells free of the compounds: rapidly lost
FXN messenger RNA [8]
  effects on FXN messenger RNA levels: no effects
FXN messenger RNA [8]; at subcytotoxic concentrations
  activator of FXN transcription in Friedreich ataxia cells: inactive
Frataxin protein
  induction of frataxin protein: no such activity
[9]
  histone acetylation on FXN (H3-K14, H4-K5, H4-K12 within intron 1): no effect

## CC(/C=C/C(=O)NO)=C\[C@@H](C)C(=O)c1ccc(N(C)C)cc1 [trichostatin A]
[1]
  mechanism of inhibition: rapid-on/rapid-off, classical competitive inhibitors
FXN messenger RNA [8]
  effects on FXN messenger RNA levels: no effects
[9]
  histone acetylation on FXN (H3-K14, H4-K5, H4-K12 within intron 1): no effect

## Nc1ccccc1NC(=O)CCCCCCC(=O)Nc1ccccc1 [BML-210]
FXN messenger RNA [8]
  repression of FXN in lymphoid cell lines derived from patients with Friedreich ataxia: relieve repression

## Cc1ccc(C(=O)NCCCCCC(=O)Nc2ccccc2N)cc1 [compound 109]
[10]
  t1/2 in acidic conditions: 6 h
YG8R mouse
  toxicity during 5 months of treatment: no overt toxicity

## Nc1ccccc1NC(=O)CCCCCC(=O)Nc1ccccc1 [4b]
[9]
  histone acetylation on FXN (H3-K14, H4-K5, H4-K12 within intron 1): increases acetylation
